Data from patent US10611740B2, “Aryl dihydro-2H-benzo[b][1,4]oxazine sulfonamide and related compounds for use as agonists of RORγ and the treatment of disease” (Lycera Corporation, priority 2015, dated 2020).
pEC50: −log10 of the molar value.

Key:
RORγ-LBD = target: T1, RORγ-LBD (Homo sapiens, UniProt P51449); assay: RORγ-Ligand Binding Domain (LBD) TR-FRET Assay; assay type: biochemical;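 on TR-FRET Assay Max Response: 665/615 nm ratio relative to signal without ursolic acid or compound set at 100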
T1 construct: made in house; host or cells: SF9 cells (baculovirus)
T1 sequence (P51449 269-508 limits assumed): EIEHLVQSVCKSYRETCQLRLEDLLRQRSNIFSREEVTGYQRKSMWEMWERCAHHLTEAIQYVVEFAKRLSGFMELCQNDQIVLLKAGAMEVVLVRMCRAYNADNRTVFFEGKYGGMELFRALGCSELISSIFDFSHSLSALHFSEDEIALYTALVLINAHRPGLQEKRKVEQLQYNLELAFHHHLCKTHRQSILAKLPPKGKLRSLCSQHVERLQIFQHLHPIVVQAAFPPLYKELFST
Summary of the method: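 His-tagged RORγ-LBD from SF9 baculovirus lysate, ~3 nM final, in 50 mM Tris pH 7.0, 50 mM KCl, 1 mM EDTA, 0.1 mM DTT, 0.01% BSA. Biotinylated SRC1 LXXLL peptide at 200 nM final with 2 μM ursolic acid; TR-FRET read-out, 1% DMSO final.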

Gal4-RORγ-LBD = target: T2, Gal4-RORγ-LBD (Homo sapiens, UniProt P51449); assay: Gal4-RORγ Luciferase Reporter Assay in HEK-293T Cells; assay type: cell-based; details: HEK-293 cells
T2 construct: expressed in transfected cells; host or cells: HEK-293 cells (pcDNA3.1neo plasmid)
T2 sequence (P51449 269-508 limits assumed): T1 sequence (P51449 269-508 limits assumed)
Summary of the method: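 HEK-293 cells were transiently co-transfected with Gal4-RORγ-LBD and pGL4.31 Gal4-luciferase, with ursolic acid added at 2 μM final. Compounds were incubated overnight at 37° C. in 0.2% DMSO and luminescence read with One-Glo. Max Response is the upper plateau of a 4-parameter logistic fit, with signal lacking ursolic acid or compound set to 100.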

[1] = luciferase reporter, with 2 μM ursolic acid

Structure (SMILES)	pEC50 (RORγ-LBD)	TR-FRET Assay Max Response (RORγ-LBD)	pEC50 (Gal4-RORγ-LBD; [1])	Gal4-RORγ Assay Max Response (Gal4-RORγ-LBD; [1])	pEC50 (Gal4-RORγ-LBD; 2 μM ursolic acid)	Gal4-RORγ Assay Max Response (Gal4-RORγ-LBD; 2 μM ursolic acid)
Cc1cc(F)cc(-c2ccc3c(c2)N(S(=O)(=O)c2cccc(C(F)(F)F)c2)C[C@H](CCC(=O)O)O3)c1 [Compound 2BN, (S)-3-(6-(3-fluoro-5-methyl-phenyl)-4-((3-(trifluoromethyl)-phenyl)sulfonyl)-3,4-dihydro-2H-benzo[b][1,4]oxazin-2-yl)propanoic acid]	> 6.30	*** (The symbol “***” indicates a value in the range of greater than 150 to 200)	> 6.30	** (The symbol “**” indicates a value in the range of greater than 90 to 150)		
Cc1noc(C)c1-c1ccc2c(c1)N(S(=O)(=O)c1cccc(C(F)(F)F)c1)C[C@H](CCC(=O)O)O2 [Compound 2BO, (S)-3-(6-(3,5-dimethylisoxazol-4-yl)-4-((3-(trifluoromethyl)-phenyl)sulfonyl)-3,4-dihydro-2H-benzo[b][1,4]oxazin-2-yl)propanoic acid]	< 5.00		< 5.00			
Cc1cccc(-c2ccc3c(c2)N(S(=O)(=O)c2cccc(C(F)(F)F)c2)C[C@H](CCC(=O)O)O3)c1C [Compound 2BR, (S)-3-(6-(2,3-dimethylphenyl)-4-((3-(trifluoromethyl)phenyl)-sulfonyl)-3,4-dihydro-2H-benzo[b][1,4]oxazin-2-yl)propanoic acid]	> 6.30	*** (The symbol “***” indicates a value in the range of greater than 150 to 200)			> 6.30	** (The symbol “**” indicates a value in the range of greater than 90 to 150)
O=C(O)CC[C@H]1CN(S(=O)(=O)c2cccc(C(F)(F)F)c2)c2cc(-c3cc(Cl)ccc3F)ccc2O1 [Compound 2C, (S)-3-(6-(5-chloro-2-fluorophenyl)-4-((3-(trifluoromethyl)phenyl)-sulfonyl)-3,4-dihydro-2H-benzo[b][1,4]oxazin-2-yl)propanoic acid]	> 6.30	*** (The symbol “***” indicates a value in the range of greater than 150 to 200)	> 6.30	** (The symbol “**” indicates a value in the range of greater than 90 to 150)		
O=C(O)CC[C@H]1CN(S(=O)(=O)c2cccc(C(F)(F)F)c2)c2cc(-c3ccc(Cl)c(Cl)c3)ccc2O1 [Compound 2E, (S)-3-(6-(3,4-dichlorophenyl)-4-((3-(trifluoromethyl)phenyl)-sulfonyl)-3,4-dihydro-2H-benzo[b][1,4]oxazin-2-yl)propanoic acid]	> 6.30	*** (The symbol “***” indicates a value in the range of greater than 150 to 200)	> 6.30	** (The symbol “**” indicates a value in the range of greater than 90 to 150)		
O=C(O)CC[C@H]1CN(S(=O)(=O)c2cccc(C(F)(F)F)c2)c2cc(-c3cccc(C(F)(F)F)c3)ccc2O1 [Compound 2G, (S)-3-(6-(3-(trifluoromethyl)phenyl)-4-((3-(trifluoromethyl)phenyl)-sulfonyl)-3,4-dihydro-2H-benzo[b][1,4]oxazin-2-yl)propanoic acid]	> 6.30	*** (The symbol “***” indicates a value in the range of greater than 150 to 200)	> 6.30	*** (The symbol “***” indicates a value in the range of greater than 150 to 200)		
O=C(O)CC[C@H]1CN(S(=O)(=O)c2cccc(C(F)(F)F)c2)c2cc(-c3cc(F)cc(Cl)c3)ccc2O1 [Compound 2I, (S)-3-(6-(3-chloro-5-fluorophenyl)-4-((3-(trifluoro-methyl)phenyl)sulfonyl)-3,4-dihydro-2H-benzo[b][1,4]-oxazin-2-yl)propanoic acid]	> 6.30	*** (The symbol “***” indicates a value in the range of greater than 150 to 200)	> 6.30	*** (The symbol “***” indicates a value in the range of greater than 150 to 200)		
O=C(O)CC[C@H]1CN(S(=O)(=O)c2cccc(C(F)(F)F)c2)c2cc(-c3ccc(F)c(Cl)c3)ccc2O1 [Compound 2J, (S)-3-(6-(3-chloro-4-fluorophenyl)-4-((3-(trifluoromethyl)phenyl)-sulfonyl)-3,4-dihydro-2H-benzo[b][1,4]oxazin-2-yl)propanoic acid]	> 6.30	** (The symbol “**” indicates a value in the range of greater than 90 to 150)	5.30 to 6.30	* (The symbol “*” indicates a value in the range of 25 to 90)		
O=C(O)CC[C@H]1CN(S(=O)(=O)c2cccc(C(F)(F)F)c2)c2cc(-c3cc(Cl)cc(Cl)c3)ccc2O1 [Compound 2L, (S)-3-(6-(3,5-dichlorophenyl)-4-((3-(trifluoromethyl)phenyl)-sulfonyl)-3,4-dihydro-2H-benzo[b][1,4]oxazin-2-yl)propanoic acid]	> 6.30	*** (The symbol “***” indicates a value in the range of greater than 150 to 200)	> 6.30	*** (The symbol “***” indicates a value in the range of greater than 150 to 200)		
O=C(O)CC[C@H]1CN(S(=O)(=O)c2cccc(C(F)(F)F)c2)c2cc(-c3cccc(C(F)(F)F)c3F)ccc2O1 [Compound 2N, (S)-3-(6-(2-fluoro-3-(trifluoromethyl)phenyl)-4-((3-(trifluoromethyl)phenyl)-sulfonyl)-3,4-dihydro-2H-benzo[b][1,4]oxazin-2-yl)propanoic acid]	> 6.30	*** (The symbol “***” indicates a value in the range of greater than 150 to 200)	> 6.30	*** (The symbol “***” indicates a value in the range of greater than 150 to 200)		
O=C(O)CC[C@H]1CN(S(=O)(=O)c2cccc(C(F)(F)F)c2)c2cc(-c3cc(C(F)(F)F)ccc3F)ccc2O1 [Compound 2O, (S)-3-(6-(2-fluoro-5-(trifluoromethyl)phenyl)-4-((3-(trifluoromethyl)phenyl)-sulfonyl)-3,4-dihydro-2H-benzo[b][1,4]oxazin-2-yl)propanoic acid]	> 6.30	*** (The symbol “***” indicates a value in the range of greater than 150 to 200)	> 6.30	*** (The symbol “***” indicates a value in the range of greater than 150 to 200)		
Cc1ccccc1-c1ccc2c(c1)N(S(=O)(=O)c1cccc(C(F)(F)F)c1)C[C@H](CCC(=O)O)O2 [Compound 2P, (S)-3-(6-(o-tolyl)-4-((3-(trifluoromethyl)phenyl)-sulfonyl)-3,4-dihydro-2H-benzo[b][1,4]oxazin-2-yl)propanoic acid]	> 6.30	*** (The symbol “***” indicates a value in the range of greater than 150 to 200)	> 6.30	*** (The symbol “***” indicates a value in the range of greater than 150 to 200)		
Cc1cccc(-c2ccc3c(c2)N(S(=O)(=O)c2cccc(C(F)(F)F)c2)C[C@H](CCC(=O)O)O3)c1 [Compound 2Q, (S)-3-(6-(m-tolyl)-4-((3-(trifluoromethyl)phenyl)-sulfonyl)-3,4-dihydro-2H-benzo[b][1,4]oxazin-2-yl)propanoic acid]	> 6.30	*** (The symbol “***” indicates a value in the range of greater than 150 to 200)	> 6.30	*** (The symbol “***” indicates a value in the range of greater than 150 to 200)		
O=C(O)CC[C@H]1CN(S(=O)(=O)c2cccc(C(F)(F)F)c2)c2cc(-c3cccc(Cl)c3F)ccc2O1 [Compound 2R, (S)-3-(6-(3-chloro-2-fluorophenyl)-4-((3-(trifluoromethyl)phenyl)-sulfonyl)-3,4-dihydro-2H-benzo[b][1,4]oxazin-2-yl)propanoic acid]	> 6.30	**** (The symbol “****” indicates a value greater than 200)	> 6.30	*** (The symbol “***” indicates a value in the range of greater than 150 to 200)		
COc1ccc(Cl)cc1-c1ccc2c(c1)N(S(=O)(=O)c1cccc(C(F)(F)F)c1)C[C@H](CCC(=O)O)O2 [Compound 2S, (S)-3-(6-(5-chloro-2-methoxyphenyl)-4-((3-(trifluoromethyl)phenyl)-sulfonyl)-3,4-dihydro-2H-benzo[b][1,4]oxazin-2-yl)propanoic acid]	> 6.30	**** (The symbol “****” indicates a value greater than 200)	> 6.30	** (The symbol “**” indicates a value in the range of greater than 90 to 150)		
COc1ccccc1-c1ccc2c(c1)N(S(=O)(=O)c1cccc(C(F)(F)F)c1)C[C@H](CCC(=O)O)O2 [Compound 2T, (S)-3-(6-(2-methoxyphenyl)-4-((3-(trifluoromethyl)phenyl)-sulfonyl)-3,4-dihydro-2H-benzo[b][1,4]oxazin-2-yl)propanoic acid]	> 6.30	**** (The symbol “****” indicates a value greater than 200)	> 6.30	*** (The symbol “***” indicates a value in the range of greater than 150 to 200)		
